Assays:
[1] = Solubility of MSM in water; type: physicochemical; settings: by weight
[2] = system: skin; test: Tanning effect of MSM additions to DHA formulas or accelerators; type: in vivo, human
From the text: Applicant has conducted experiments with a typical oil-in-water self tanning cream containing DHA as the self tanning agent with or without the inclusion of MSM. […] Applicant also conducted experiments with DHA containing self-tanning liquid mousse compositions, with and without MSM.

CS(C)(=O)=O [MSM, methylsulfonyl methane]
solubility of MSM in water [1]: ~20% | tanning effect ([2]; 0.1% addition of MSM): ineffective | tanning effect ([2]; addition of 5% MSM to DHA formulas, with or without soluble dyes): enhances tanning effect producing a more intense hue that lasts longer

Reference: patent US6706257B1, “Sunless tanning products and processes” (Discovery Partners, LLC, priority 2001, dated 2004)
